Values quoted from earlier work as cited in paper PMC6958329, “New ^55Co-labeled Albumin-Binding Folate Derivatives as Potential PET Agents for Folate Receptor Imaging” (Pharmaceuticals, 2019).
Like-named read-outs stand apart in the source and are kept apart here.

Tested on: tumor
Parameters: method as in PMID 27145400
Details: previously reported, cited from earlier work

Nc1nc2ncc(CNc3ccc(C(=O)N[C@@H](CCC(=O)NC(CCCCNC(=O)CCC(C(=O)O)N4CCN(CC(=O)O)CCN(CC(=O)O)CC4)C(=O)NC(CCCCNC(=O)CCCc4ccc(I)cc4)C(=O)O)C(=O)O)cc3)nc2c(=O)[nH]1.[64Cu] (stereo partly drawn) [[^64Cu]Cu-rf42]
tumor uptake (4 h post-injection): 14.5% ± 1.0%
tumor uptake (24 h post-injection): 16% ± 4%

Nc1nc2ncc(CNc3ccc(C(=O)N[C@@H](CCC(=O)NC(CCCCNC(=O)CCC(C(=O)O)N4CCN(CC(=O)O)CCN(CC(=O)O)CC4)C(=O)NC(CCCCNC(=O)CCCc4ccc(I)cc4)C(=O)O)C(=O)O)cc3)nc2c(=O)[nH]1.[68Ga] (stereo partly drawn) [[^68Ga]Ga-rf42]
tumor uptake (4 h post-injection): 12% ± 2%
